In patent US5126258A (priority 1988, dated 1992):
In brackets after ≈: the same amount, converted by molar mass. Like-named read-outs stand apart in the source and are kept apart here.

What was measured:
[1] = leaving group alcohol; source not stated; cited from earlier work
[2] = tested on: monoclonal antibody P3 6D4; assay: Ester hydrolysis by monoclonal antibody P3 6D4, HPLC; type: biochemical, mouse; conditions: for t1/2 Antibody (P3 6D4): 5 micromolar substrate, 0.1 micromolar antibody, 50 mM phosphate pH 8.0, 25 C
Procedure: FIG. 3 illustrates the rate of hydrolysis of a carboxylic ester (Compound 7) determined by HPLC under the conditions described in Table 1 (50 mM phosphate buffer at pH 8.0 and 23 degrees C). ( ) Uncatalyzed (background)rate of hydrolysis. (.quadrature.) Effect of 0.5 micromolar non-specific monoclonal IgG. ( ) 0.1 Micromolar anti-Compound 4 monoclonal antibody from hybridoma P3 6D4. The superimposed curve represents a theoretical exponential decay which fits the data points.
(§1) In particular, an exemplary monoclonal receptor was produced by the standard hybridoma technology of Kohler et al., Nature, 256, 495 (1975). Specifically, female 129G1X^+ mice were immunized by intraperitoneal injection with an inoculum of 100 micrograms of conjugate (e.g., Compound 4i bound to KLH) in 300 microliters of a 1:1 mixture of phosphate buffered saline (PBS) pH 7.4 and complete Freund's adjuvant. Two weeks later, the mice were again injected in a like manner with 50 micrograms of the foregoing conjugate in 300 microliters of a 1:1 mixture of PBS (pH 7.4) and 10 mg/ml alum. After an additional eight weeks, the mice were immunized intravenously with 50 micrograms of the conjugate in 200 microliters of PBS (pH 7.4). The spleens were removed from the mice 4 days later, and the spleen cells were fused to myeloma cells.
(§2) The lack of spectroscopic distinction between such esters and their hydrolysis products recommended a chromatographic analysis of the process. Referring to FIG. 3, a mixture of Compound 7 (5 uM) and the monoclonal antibody from hybridoma P3 6D4 (0.1 uM) in phosphate buffer (50 mM, pH 8.0) was analyzed over time by high performance liquid chromatography (HPLC). The accelerated hydrolysis of the ester was apparent from the decrease of its peak and the concurrent increase in two new peaks that correspond with the expected products. Under these conditions, the ester is completely consumed in 60-80 minutes during which time the background rate accounts for about 12 to 16 percent hydrolysis. The chromatographic profile is the same as that produced by treatment with hog liver esterase.
(§3) *Hydrolysis of carboxylic esters by monoclonal antibody (from hybridoma P
(§4) 6D4) and by hog liver esterase (Sigma Chemical Co., St. Louis, MO, EC
(§5) 3.1.1.1) determined by HPLC on an analytical RPC18 column (Vydac 218TP54)
(§6) with isocratic elution [acetonitrile: water plus 0.1 percent
(§7) trifluoroacetic acid; (35:65)] at a flow rate of 1.0 ml/min and the
(§8) detector set at 245 nm. The initial substrate concentration was 5
(§9) micromolar and that the internal standard (acetophenone) was 10 microm
(§10) olar in 50 mM phosphate buffer at pH 8.0. The retention times (minutes)
(§11) were as follows: acetophenone, 5.0; Compound 7, 8.3; Compound 8, 6.7;
(§12) Compound 9, 4.1; Compound 10, 11.1 (40 percent acetonitrile elution);
(§13) Compound 11, 8.2. The antibody concentration was 15 micrograms/ml (0.1
(§14) micromolar) and that of esterase was 5.5 micrograms/ml. The reaction
(§15) mixtures were kept at 25 degrees C. and aliquots were analyzed at
(§16) intervals of 2 to 20 minutes. Three or more determinations were used to
(§17) plot a curve from which the halflife of the reaction is estimated (see

[3] = tested on: monoclonal antibody P3 6D4; assay: Kinetics and inhibition of catalytic ester hydrolysis by monoclonal antibody P3 6D4, spectrophotometric at 245 nm; type: biochemical, mouse; conditions: for Km / Vmax / kcat: 50 mM phosphate pH 8.0, 25 C; for Km / Vmax: 100 nM IgG; for Km: figure = Km × 10^6; for Vmax: figure = Vmax × 10^9; for kcat: printed figure = kcat × 10^2; for kcat/kuncat / Ki: pH 8.0; for acceleration above the background rate: pH 8.0, corrected for background hydrolysis rate; for Ki: figure = Ki × 10^7, read-out: Ki
Procedure: FIG. 4 illustrates a Lineweaver-Burk plot for the hydrolysis of Compound 7 by anti-Compound 4 monoclonal antibody from hybridoma P3 6D4. Velocities were determined spectrophotometrically by measuring initial rates during the first linear portion of the reaction as described with reference to Table 2. The substrate concentrations were corrected for amounts consumed during initial equilibration. ( ) No inhibitor present. ( ) Inhibited by 50 nM phosphonate (Compound 3). ( ) Inhibited by 100 nM phosphonate (Compound 3).
as §1
Reaction kinetics were measured spectrophotometrically by following the absorption change at 245 nanometers. […] Kinetic parameters obtained with these substrates are shown in Table 2 along with the inhibition constants obtained with phosphonate (Compound 3). Under these conditions, the acceleration above the background rate is about 960-fold for Compound 7 and about 200-fold for Compound 8 (corrected for the background hydrolysis rate).
*The kinetic parameters shown in Table 2 are for the hydrolysis of esters
(Compounds 7 and 8) by monoclonal antibody P3 6D4. A PerkinElmer lambda 4
spectrophotometer, equipped with thermostatted cell holder, was used to
measure absorption changes at 245 nm. Cells containing the substrate at
concentrations of 0.5 to 50 micromolar in phosphate buffer (50 mM, pH 8.0
were preequilibrated at 25 degrees C. The concentration of active IgG in
stock solution was found by reacting with the coumarin ester (Compound 5)
and measuring the yield of hydroxycoumarin by fluorescence. The kinetic
run was initiated by addition of an aliquot of the antibody stock solutio
(in 50 mM phosphate buffer, pH 8.0) calculated to give 100 nM IgG. The
mixture was allowed to equilibrate for 2 to 3 minutes and the rate was
then measured during the subsequent 10 minutes. The absorption change for
complete hydrolysis was determined by treatment with esterase. Kinetic
parameters were obtained from L ineweaverBurk plots (see FIG. 4).
Inhibition constants were determined from a plot of the slopes with at
least four inhibitor concentrations of Compound 3. The data were analyzed

[4] = Spontaneous (uncatalyzed, background) hydrolysis; type: physicochemical; conditions: spectrophotometric at 245 nm, initial rates at five ester concentrations; figure = k × 10^5
Method in brief: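 Background (uncatalyzed) hydrolysis of ester substrates measured in 50 mM phosphate buffer, pH 8.0, without antibody, as percentage of reactant consumed over the stated period. Quantified by C18 HPLC (acetonitrile/water with 0.1% trichloroacetic acid); Compounds 5 and 20 followed by fluorescence (ex 355 nm, em 455 nm).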

hog liver esterase = type: biochemical; conditions: pig, 5 µM, pH 8
Procedure: as §2, §3, §4, §5, §6, §7, §8, §9, §10, §11, §12, §13, §14, §15, §16, §17

Solubility = type: physicochemical; conditions: aqueous buffer
[5] = tested on: monoclonal receptor P3 6D4; assay: Stoichiometric transacylation reaction of monoclonal receptor P3 6D4 with coumarin ester Compound 5 (fluorescence) and its inhibition/inactivation; type: biochemical, mouse
Method in brief: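 Antibody P3 6D4 (100 nM final) reacted at 23 °C with coumarin ester 5 in Tris-HCl or phosphate buffer (50 mM, pH 4–9), followed by fluorescence (ex 355/em 455 nm). Initial rates corrected for spontaneous hydrolysis; kinetic parameters from hyperbolic and double-reciprocal fits, Ki from Lineweaver-Burk with ≥5 inhibitor concentrations.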

[6] = Metal chelate formation constants, potentiometric titration; type: physicochemical; conditions: titrimetric analysis, estimated; read-out: formation constants of 1:1 chelates with divalent metal ions
Excerpt: Such a possibility was investigated using a dipicolinic acid halide to derivatize the ortho aminomethyl group of a phenolic structure (see Compounds 3 and 4 of FIG. 2). The dealkylation of the phosphonyl and acyl esters of this adduct exposes the potential ligands for the formation of a metal chelate. The intrinsic stability of complexes of this ligand, however, determined with divalent transition metals such as cobalt, zinc and copper, are probably too low to expect these chelates to maintain their integrity in the immunization process. In fact, the formation constants of 1:1 chelates of Compound 3 with the divalent metal ions are in the range of 10^4 -10^5 M^-1 as estimated by titrimetric analysis.
Determination of pKa and stability constants K:
All determinations of pKa and stability constants (K) are performed according to the method of Martell. This method consisted of potentiometric titration of the particular compound (at a concentration of about 1.4 mM) in the absence of and in the presence of the metal ion being investigated. The ionic strength was maintained constant using 0.1M NaClO4 as a supporting electrolyte. All measurements were carried out under nitrogen at 25 degrees C plus or minus 0.01 degrees C.

t1/2 Antibody (P3 6D4) [2] [min] | Km [3] [µM] | t1/2 Esterase (hog liver esterase) [min] | SMILES | Vmax [3] [µM/min] | kcat [3] [s⁻¹] | kcat/kuncat [3] | acceleration above the background rate [3] | further results
 |  |  | Oc1cccc2ccccc12 [alpha-naphthol] |  |  |  |  | pKa [1]: about 9.3
16 | 1.9 | 4 | CC(=O)Nc1ccc(OC(=O)Cc2ccc(NC(=O)C(F)(F)F)cc2)cc1 [Compound 7] | 0.132 | 0.027 | 960 | about 960 fold | time to complete consumption of ester ([2]; 5 uM Compound 7, 0.1 uM antibody P3 6D4, 50 mM phosphate pH 8.0): 60 to 80 min; turn over of receptor with substrate ([3]; without noticeable inactivation): several hundred fold; kuncat [4]: 280000 s⁻¹; solubility (Solubility; read-out: concentration above which solutions become slightly turbid): 15 µM (≈ 5.7 µg/mL)
60 | 0.62 | 52 | O=C(O)CCC(=O)Nc1ccc(OC(=O)Cc2ccc(NC(=O)C(F)(F)F)cc2)cc1 [Compound 8] | 0.06 | 0.008 | 210 | about 200 fold | accelerated hydrolysis by P3 6D4 (substrate acceptance) ([2]; pH 8.0): somewhat slower rate; inactivation of receptor [5]: loss of activity; solubility (Solubility; 50 mm phosphate buffer, phosphate buffer 50 mM, pH 8.0, read-out: soluble up to concentration): ≥ 100 µM
 |  |  | CCOP(=O)(Cc1ccc(NC(=O)C(F)(F)F)cc1)Oc1ccc(NC(C)=O)cc1CNC(=O)c1cccc(C(=O)OC)n1 (stereo not shown) [Compound 3] |  |  |  |  | Kd [6]: 10 to 100 µM; Ki ([3]; inhibitor Compound 3, substrate Compound 7 (table line 7)): 0.16 µM; Ki ([3]; inhibitor Compound 3, substrate Compound 8 (table line 8)): 0.065 µM
